Consider 18 molecules from patent US12257243B2, “5-hydroxy-7-oxabicyclo[2.2.1]heptane-2-carboxamide derivatives for inducing chondrogenesis for treating joint damage” (NOVARTIS AG, priority 2018, dated 2025).

Where two headings read alike, the source gives them in different places.

For the test, the system named is ALP in normal human articular chondrocytes (NHACs). As to the kind of experiment: Alkaline Phosphatase (ALP) activity assay (staining and quantitation) in NHACs, prevention of chondrocyte hypertrophy. The class given is cell-based. As to conditions: human IL-1 beta 10 ng/mL, 12 days; for IC50: Fast Blue RR staining, high content imaging, read-out: ALP in NHAC IC50; for Emax / ALP in NHAC (% Efficacy): value in parentheses; for Emax: read-out: ALP in NHAC (% Efficacy). The essentials: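 Hypertrophy readout: ALP staining (Fast Blue RR with naphthol AS-MX phosphate) plus Hoechst, imaged at 561 nm and/or quantified by high-content multiwavelength cell scoring. Before staining, NHACs (7,500/well, DMEM/10% FBS) were exposed to compound for 5 h, then cultured with 10 ng/mL IL-1β for 12 days at 37 °C.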

One may read the IC50 as the concentration that inhibits the measured activity by half. On to `O=C(Nc1ccc(F)c(C(F)(F)F)c1)[C@@H]1[C@@H](c2cccc(C(F)(F)F)c2)[C@H]2O[C@@H]1C[C@@H]2O` (racemic) [Example 16, rac-(1R,2R,3S,4R,5S)—N-(4-fluoro-3-(trifluoromethyl)phen)-5-hydroxy-3-(3-(trifluoromethyl)phenyl)-7-oxabicyclo[2.2.1]heptane-2-carboxamide], for which, for the setting “Chondrocyte, 288 h”, the half-inhibitory concentration (IC50) came out at 12 µM and the Emax came out at 105%.
Turning to `CCOc1cc(C(F)(F)F)cc(NC(=O)[C@@H]2[C@@H](c3cccc(C(F)(F)F)c3)[C@H]3O[C@@H]2C[C@@H]3O)n1` (racemic) [Example 9, rac-(1R 2R,3S,4R,5S)—N-(6-ethoxy-4-(trifluoromethyl)pyridin-2-yl-5-hydroxy-3-(3-(trifluoromethyl)phenyl)-7-oxabicyclo[2.2.1]heptane-2-carboxamide], for the setting “Chondrocyte, 288 h”, the IC50 was found to be 12 µM and the Emax amounted to 108%.
On to `Cn1cc([C@H]2[C@H]3O[C@H](C[C@@H]3O)[C@@H]2C(=O)Nc2cc(C(F)(F)F)ccc2C#N)c(C(F)(F)F)n1` (single isomer, unassigned) [Example 49a, (1R,2R,3S,4R,5N-(2-cyano-5-(trifluoromethyl)phenyl)-5-hydroxy-3-(1-methyl-3-(trifluoromethyl)-1H-pyrazol-4-yl)-7-oxabicyclo[2.2.1]heptane-2-carboxamide or (1S,2S,3R,4S,5R)—N-(2-cyano-5-(trifluoromethyl)phenyl)-5-hydroxy-3-(1-methyl-3-(trifluoromethyl)-1H-pyrazol-4-yl)-7-oxabicyclo[2.2.1]heptane-2-carboxamide], for which the IC50 was 1.9 µM and the “ALP in NHAC (% Efficacy)” value stood at 101%.
For the molecule `O=C(Nc1ccc(C(F)(F)F)c(Cl)n1)[C@@H]1[C@@H](c2cccc(C(F)(F)F)c2)[C@H]2O[C@@H]1C[C@@H]2O` (racemic) [Example 25, rac-(1R,2R,3S,4R,5S)—N-(6-chloro-5-(trifluoromethyl)pyridin-2-yl)-5-hydroxy-3-(3-(trifluoromethyl)phenyl)-7-oxabicyclo[2.2.1]heptane-2-carboxamide], where the note is “Chondrocyte, 288 h”, the IC50 is 2.9 µM and the Emax came to 112%.
Taken in the same sequence, the figures for `Cn1cc([C@H]2[C@H]3O[C@H](C[C@@H]3O)[C@@H]2C(=O)Nc2cc(C(F)(F)F)cc(C(F)(F)F)c2)c(C(F)(F)F)n1` (racemic) [Example 50, rac-(1R,2R,3S,4R,5S)—N-(3,5-bis(trifluoromethyl)phenyl)-5-hydroxy-3-(1-methyl-3-(trifluoromethyl)-1H-pyrazol-4-yl)-7-oxabicyclo[2.2.1]heptane-2-carboxamide] were 2.3 µM and 101%.
Taken in the same sequence, the figures for `Cn1cc([C@H]2[C@H]3O[C@H](C[C@@H]3O)[C@@H]2C(=O)Nc2cc(C(F)(F)F)ccn2)c(C(F)(F)F)n1` (racemic) [Example 38, rac-(1R,2R,3S,4R,5S)-5-hydroxy-3-(1-methyl-3-(trifluoromethyl)-1H-pyrazol-4-yl)-N-(4-(trifluoromethyl)pyridin-2-yl)-7-oxabicyclo[2.2.1]heptane-2-carboxamide] were 3.6 µM and 94%.
Consider `Cc1cc(NC(=O)[C@@H]2[C@@H](c3cccc(C(F)(F)F)c3)[C@H]3O[C@@H]2C[C@@H]3O)cc(C(F)(F)F)c1` (racemic) [Example 13, rac-(1R,2R,3S,4R,5S)-5-hydroxy-N-(3-methyl-5-(trifluoromethyl)phenyl)-3-(3-(trifluoromethyl)phenyl)-7-oxabicyclo[2.2.1]heptane-2-carboxamide], for which, for the setting “Chondrocyte, 288 h”, the IC50 was 11 µM and the Emax is 105%.
In the same order, the values of `O=C(Nc1ccc(C(F)(F)F)nc1)[C@@H]1[C@@H](c2cccc(C(F)(F)F)c2)[C@H]2O[C@@H]1C[C@@H]2O` (racemic) [Example 27, rac-(1R,2R,3S,4R,5S)-5-hydroxy-3-(3-(trifluoromethyl)phenyl)-N-(6-(trifluoromethyl)pyridin-3-yl)-7-oxabicyclo[2.2.1]heptane-2-carboxamide] are more than 30 µM and 38%.
Taken in the same sequence, the figures for `Cc1cc(NC(=O)[C@@H]2[C@@H](c3cn(C(C)C)nc3C(F)(F)F)[C@H]3O[C@@H]2C[C@@H]3O)cc(C(F)(F)F)c1` (racemic) [Example 88, rac-(1R,2R,3S,4R,5S)-5-hydroxy-3-(1-isopropyl-3-(trifluoromethyl)-1H-pyrazol-4-yl)-N-(3-methyl-5-(trifluoromethyl)phenyl)-7-oxabicyclo[2.2.1]heptane-2-carboxamide] were more than 30 µM and 20%.
On to `Cc1ccc(C(F)(F)F)cc1NC(=O)[C@@H]1[C@@H](c2cn(C)nc2C(F)(F)F)[C@H]2O[C@@H]1C[C@@H]2O` (racemic) [Example 54, rac-(1R,2R,3S,4R,5S)-5-hydroxy-3-(1-methyl-3-(trifluoromethyl)-1H-pyrazol-4-yl)-N-(2-methyl-5-(trifluoromethyl)phenyl)-7-oxabicyclo[2.2.1]heptane-2-carboxamide], for which, for the setting “Chondrocyte, 288 h”, the IC50 amounted to 4.1 µM and the Emax came to 52%.
Taken in the same sequence, the figures for `Cn1cc([C@H]2[C@H]3O[C@H](C[C@@H]3O)[C@@H]2C(=O)Nc2cc(Cl)cc(C(F)(F)F)c2)c(C(F)(F)F)n1` (racemic) [Example 34, rac-(1R,2R,3S,4R,5)-N-(3-chloro-5-(trifluoromethyl)phenyl)-5-hydroxy-3-(1-methyl-3-(trifluoromethyl)-1H-pyrazol-4-yl)-7-oxabicyclo[2.2.1]heptane-2-carboxamide] were 6.5 µM and 101%.
In the same order, the values of `O=C(Nc1cc(C(F)(F)F)ccn1)[C@@H]1[C@@H](c2cccc(C(F)(F)F)c2)[C@H]2O[C@@H]1C[C@@H]2O` (racemic) [Example 4, rac-(1R,2R,3S,4R,5S)-5-hydroxy-3-(3-trifluoromethyl)phenyl)-N-(4-(trifluoromethyl)pyridin-2-yl)-7-oxabicyclo[2.2.1]heptane-2-carboxamide] are 7.1 µM and 90%.
Consider `N#Cc1cc(NC(=O)[C@@H]2[C@@H](c3cccc(C(F)(F)F)c3)[C@H]3O[C@@H]2C[C@@H]3O)cc(C(F)(F)F)c1` (racemic) [Example 47, rac-(1R,2R,3S,4R,5S)—N-(3-cyano-5-(trifluoromethyl)phenyl)-5-hydroxy-3-(3-(trifluoromethyl)phenyl)-7-oxabicyclo[2.2.1]heptane-2-carboxamide], for which, where the note is “Chondrocyte, 288 h”, the IC50 was determined as 5.5 µM and the Emax came to 87%.
For `Cn1cc([C@H]2[C@H]3O[C@H](C[C@@H]3O)[C@@H]2C(=O)Nc2cc(C(F)(F)F)ccn2)c(C(F)(F)F)n1` (single isomer, unassigned) [Example 38b, (1R,2R,3S,4R,5S)-5-hydroxy-3-(1-methyl-3-(trifluoromethyl)-1H-pyrazol-4-yl)-N-(4-(trifluoromethyl)pyridin-2-yl)-7-oxabicyclo[2.2.1]heptane-2-carboxamide or (1S,2S,3R,4S,5R)-5-hydroxy-3-(1-methyl-3-(trifluoromethyl)-1H-pyrazol-4-yl)-N-(4-(trifluoromethyl)pyridin-2-yl)-7-oxabicyclo[2.2.1]heptane-2-carboxamide], the IC50 was more than 30 µM and the “ALP in NHAC (% Efficacy)” value is reported as 27%.
In the same order, the values of `Cn1cc([C@H]2[C@H]3O[C@H](C[C@@H]3O)[C@@H]2C(=O)Nc2cc(C(F)(F)F)c(Cl)cn2)c(C(F)(F)F)n1` (single isomer, unassigned) [Example 36b, (1R 2R,3S,4R,5S)—N-(5-chloro-4-(trifluoromethyl)pyridin-2-yl)-5-hydroxy-3-(1-methyl-3-(trifluoromethyl)-1H-pyrazol-4-yl)-7-oxabicyclo[2.2.1]heptane-2-carboxamide or (1S,2S,3R,4S,5R)—N-(5-chloro-4-(trifluoromethyl)pyridin-2-yl)-5-hydroxy-3-(1-methyl-3-(trifluoromethyl)-1H-pyrazol-4-yl)-7-oxabicyclo[2.2.1]heptane-2-carboxamide] are 17 µM and 83%.
As to `O=C(Nc1ccc(Cl)c(C(F)(F)F)c1)[C@@H]1[C@@H](c2cccc(C(F)(F)F)c2)[C@H]2O[C@@H]1C[C@@H]2O` (racemic) [Example 18, rac-(1R,2R,3S,4R,5)-N-(4-chloro-3-(trifluoromethyl)phenyl)-5-hydroxy-3-(3-(trifluoromethyl)phenyl)-7-oxabicyclo[2.2.1]heptane-2-carboxamide], for the setting “Chondrocyte, 288 h”, the IC50 worked out at 8 µM and the Emax worked out at 102%.
Taken in the same sequence, the figures for `Cn1cc([C@H]2[C@H]3O[C@H](C[C@@H]3O)[C@@H]2C(=O)Nc2cc(F)cc(C(F)(F)F)c2)c(C(F)(F)F)n1` (racemic) [Example 45, rac-(1R,2R,3S,4R,5S)—N-(3-fluoro-5-(trifluoromethyl)phenyl)-5-hydroxy-3-(1-methyl-3-(trifluoromethyl)-1H-pyrazol-4-yl)-7-oxabicyclo[2.2.1]heptane-2-carboxamide] were 7 µM and 61%.
Take `O=C(Nc1ccc(C(F)(F)F)c(Cl)n1)[C@@H]1[C@@H](c2cccc(C(F)(F)F)c2)[C@H]2O[C@@H]1C[C@@H]2O` (single isomer, unassigned) [Example 25a, (1R,2R,3S,4R,5S)—N-(6-chloro-5-(trifluoromethyl)pyridin-2-yl)-5-hydroxy-3-(3-(trifluoromethyl)phenyl)-7-oxabicyclo[2.2.1]heptane-2-carboxamide or (1S,2S,3R,4S,5R)—N-(6-chloro-5-(trifluoromethylpyridin-2-yl)-5-hydroxy-3-(3-(trifluoromethyl)phenyl)-7-oxabicyclo[2.2.1]heptane-2-carboxamide]: the concentration for half-maximal inhibition (IC50) amounted to 0.55 µM and the “ALP in NHAC (% Efficacy)” value was determined as 89%.
